# Source: US9120774B2 (University of Kansas, priority 2009, dated 2015)
# Read-outs that look alike come from different tables or passages of the source.
# Assays:
# Format in all cases: cell-based
# [1] = test system: SkBr3 (Her2 overexpressing breast cancer cells); assay: Anti-proliferation activity against SkBr3 cells (MTS/PMS)
# Method in brief: (§1)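 Viability after 72 h compound treatment (1% DMSO final, 37° C., 5% CO2) measured by MTS/PMS; plating density 2000 cells/well with overnight attachment.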
# [2] = test system: MCF-7 (estrogen receptor positive breast cancer cells); assay: Anti-proliferation activity against MCF-7 cells (MTS/PMS)
# Method in brief: as §1
# [3] = test system: LNCaP (androgen sensitive prostate cancer cells); assay: Anti-proliferation activity against LNCaP cells; conditions: Homo sapiens, LNCaP
# Method in brief: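 Cells seeded at 2000/well in Advanced DMEM/F12 with 10% FBS and attached overnight, then given compound in 1% DMSO final for 72 h at 37 °C, 5% CO2. Viable cells by MTS/PMS read-out, normalised to 1% DMSO as 100% proliferation. IC50 from separate triplicate experiments.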
# [4] = test system: PC-3 (androgen independent prostate cancer cells); assay: Anti-proliferation activity against PC-3 cells; conditions: for IC50: Homo sapiens, PC-3, read-out: IC50 PC-3
# Method in brief: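 Antiproliferative activity was tested in PC-3 androgen-independent prostate cancer cells. Cells grown at 37° C. with 5% CO2 in Advanced DMEM/F12 (1:1) containing non-essential amino acids, 2 mM L-glutamine, streptomycin, penicillin and 10% FBS were plated at 2000/well in 96-well plates. Proliferation was normalized to 1% DMSO controls, and IC50 values from triplicate experiments were fitted in GraphPad Prism.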
# cancer cell lines = assay: Anti-proliferative activity, statements covering several cancer cell lines; conditions: for fold reduced activity versus the compound with a hydrogen at the 5-position: both breast cancer cell lines
# Experimental: Upon completion of synthesis of library of compounds in Examples 23 and 24, the compounds were evaluated for anti-proliferative activity against SkBr3 (Her2 overexpressing breast cancer cells), MCF-7 (estrogen receptor positive breast cancer cells), HCT-116 (colon cancer cells characterized by wild-type p53), PL45 (pancreatic cancer cells), LNCaP (androgen sensitive prostate cancer cells) and PC-3 (androgen independent prostate cancer cells) cell lines. […] The monosubstituted benzamide variants improved activity.
# (§2) Cells were maintained in a 1:1 mixture of Advanced DMEM/F12 (Gibco) supplemented with non-essential amino acids, L-glutamine (2 mM), streptomycin (500 ng/mL), penicillin (100 units/mL), and 10% FBS. Cells were grown to confluence in a humidified atmosphere (37° C., 5% CO2), seeded (2000/well, 100 μl) in 96-well plates, and allowed to attach overnight. Compound or GDA at varying concentrations in DMSO (1% DMSO final concentration) was added, and cells were returned to the incubator for 72 hours. At 72 hours, the number of viable cells was determined using an MTS/PMS cell proliferation kit (Promega) per the manufacturer's instructions. Cells incubated in 1% DMSO were used at 100% proliferation, and values were adjusted accordingly. IC50 values were calculated from separate experiments performed in triplicate using GraphPad Prism.
# as §2, with “μg/mL),” for “ng/mL),”, “μL)” for “μl)”
# [5] = test system: LN3 (metastatic human prostate cancer cells); assay: Anti-proliferation activity against LN3 cells (MTS/PMS); conditions: 72 hours
# Experimental: as §2, with “μg/mL),” for “ng/mL),”, “μL)” for “μl)”
# [6] = test system: MM2 (metastatic mammary tumor cancer cells); assay: Anti-proliferation activity against MM2 cells (MTS/PMS); conditions: 72 hours
# Experimental: as §2, with “μg/mL),” for “ng/mL),”, “μL)” for “μl)”
# [7] = test system: A549 (human alveolar basal epithelial cells); assay: Anti-proliferation activity against A549 cells (MTS/PMS); conditions: 72 hours
# Experimental: as §2, with “μg/mL),” for “ng/mL),”, “μL)” for “μl)”
# [8] = test system: HCT-116 (colon cancer cells characterized by wild-type p53); assay: Anti-proliferation activity against HCT-116 cells; conditions: Homo sapiens, Table 2, n = 3
# [9] = test system: PL45 (pancreatic cancer cells); assay: Anti-proliferation activity against PL45 cells; conditions: Table 2, n = 3
# [10] = Homo sapiens, SK-BR-3, Table 6, 72 hours, MTS/PMS, mean ± standard deviation, read-out: IC50 SKBr3
# [11] = Homo sapiens, MCF7, Table 6, 72 hours, MTS/PMS, mean ± standard deviation, read-out: IC50 MCF-7
# [12] = Table 6, 72 hours, MTS/PMS, mean ± standard deviation, read-out: IC50 LnCaP
# [13] = Table 6, 72 hours, MTS/PMS, mean ± standard deviation
# [14] = Homo sapiens, SK-BR-3, Table 10, azasugar analogues on 6-methoxy coumarin, 72 hours, read-out: IC50 SKBr3
# [15] = Homo sapiens, MCF7, Table 10, azasugar analogues on 6-methoxy coumarin, 72 hours, read-out: IC50 MCF-7
# [16] = Homo sapiens, Table 10, azasugar analogues on 6-methoxy coumarin
# [17] = Table 10, azasugar analogues on 6-methoxy coumarin
# [18] = Homo sapiens, A549, Table 10, azasugar analogues on 6-methoxy coumarin
# [19] = Table 8, unsaturated azasugar analogues
# [20] = Homo sapiens, SK-BR-3, Table 12, aliphatic chain analogues, 72 hours, read-out: IC50 SKBr3
# [21] = Homo sapiens, MCF7, Table 12, aliphatic chain analogues, 72 hours, read-out: IC50 MCF-7
# [22] = Homo sapiens, Table 12, aliphatic chain analogues
# [23] = Table 12, aliphatic chain analogues
# [24] = Homo sapiens, A549, Table 12, aliphatic chain analogues
# [25] = Table 9, azasugar analogues on 8-methyl coumarin
# [26] = Table 13, various sugars on 8-methyl coumarin
structure (smiles),measurement,setting,value
"COc1cc(O[C@@H]2OC(C)(C)[C@H](OC)[C@@H](O)[C@H]2O)c(C)c2oc(=O)c(NC(=O)c3cc4ccccc4[nH]3)cc12 [26l, N-(7-((2R,3R,4S,5R)-3,4-dihydroxy-5-methoxy-6,6-dimethyltetrahydro-2H-pyran-2-yloxy)-5-methoxy-8-methyl-2-oxo-2H-chromen-3-yl)-1H-indole-2-carboxamide]",IC50,[1]; [10],9 ± 0.8 µM
same,IC50,[2]; [11],6.1 ± 1.7 µM
same,IC50,[3]; [12],12.9 ± 4.4 µM
same,IC50,[4]; [13],11.8 ± 1.3 µM
same,fold reduced activity versus the compound with a hydrogen at the 5-position,cancer cell lines,15 fold
"COc1cccc(-c2cc(C(=O)Nc3cc4ccc(O[C@@H]5OC(C)(C)[C@H](OC)[C@@H](O)[C@H]5O)c(OC)c4oc3=O)ccc2OC)c1 [26g, N-(7-((2S,3R,4S,5R)-3,4-dihydroxy-5-methoxy-6,6-dimethyltetrahydro-2H-pyran-2-yloxy)-8-methoxy-2-oxo-2H-chromen-3-yl)-3′,6-dimethoxybiphenyl-3-carboxamide]",IC50,[1]; [10],13.9 ± 1.2 µM
same,IC50,[2]; [11],9 ± 5.4 µM
same,IC50,[3]; [12],1.1 ± 0.1 µM
same,IC50,[4]; [13],2.3 ± 2.9 µM
same,fold increased activity versus the 8-methyl derivative,[4]; PC-3 cells,10 fold
same,fold improved activity over its 8-methyl counterpart,cancer cell lines; breast cancer cells,2 fold
same,fold increased activity over 8-ethyl 26h,cancer cell lines; breast cancer cells,5 fold
COc1cccc(-c2cc(C(=O)Nc3cc4cc(OC)c(OC5CCNCC5)c(C)c4oc3=O)ccc2OC)c1 [KU-286],IC50,[1]; [14],1.2 ± 0.1 µM
same,IC50,[2]; [15],2.82 ± 1.38 µM
same,IC50,[5]; [16],5.27 µM
same,IC50,[6]; [17],4.02 µM
same,IC50,[7]; [18],3.5 µM
COc1cccc(-c2cc(C(=O)Nc3cc4ccc(OC5CCN(C)CC5)c(OC)c4oc3=O)ccc2OC)c1 [KU-275],IC50,"[1]; Homo sapiens, SK-BR-3, Table 11, azasugar analogues on 8-methoxy coumarin, 72 hours, read-out: IC50 SKBr3",0.97 ± 0.09 µM
same,IC50,"[2]; Homo sapiens, MCF7, Table 11, azasugar analogues on 8-methoxy coumarin, 72 hours, read-out: IC50 MCF-7",1.39 ± 0.35 µM
same,IC50,"[5]; Homo sapiens, Table 11, azasugar analogues on 8-methoxy coumarin",4.75 µM
same,IC50,"[6]; Table 11, azasugar analogues on 8-methoxy coumarin",3.71 µM
same,IC50,"[7]; Homo sapiens, A549, Table 11, azasugar analogues on 8-methoxy coumarin",3.06 µM
"CC(C)=CCc1cc(C(=O)Nc2cc3ccc(O[C@@H]4C[C@H](O)CCO4)c(C)c3oc2=O)ccc1O [18b, KU-430, 4-Hydroxy-N-(7-((2R,4R)-4-hydroxytetrahydro-2H-pyran-2-yloxy)-8-methyl-2-oxo-2H-chromen-3-yl)-3-(3-methylbut-2-enyl)benzamide]",IC50,"[1]; Homo sapiens, SK-BR-3, Table 18, modified furanose or pyranose noviose replacements, read-out: IC50, SKBr3",3.11 ± 0.19 µM
same,IC50,"[1]; Homo sapiens, SK-BR-3, text of Example 47, read-out: IC50 SKBr3",3.11 ± 0.03 µM
same,IC50,"[2]; Homo sapiens, MCF7, Table 18, modified furanose or pyranose noviose replacements, read-out: IC50, MCF7",1.56 ± 0.09 µM
same,IC50,"[2]; Homo sapiens, MCF7, text of Example 47, read-out: IC50 MCF-7",1.56 ± 0.2 µM
same,times/fold more active than DHN2 (anti-proliferative activity),cancer cell lines,~3 fold
same,times/fold more active than novobiocin (anti-proliferative activity),cancer cell lines,~200 fold
CO[C@@H]1[C@@H](O)[C@@H](O)[C@H](Oc2ccc3cc(NC(=O)c4ccccc4N)c(=O)oc3c2C)OC1(C)C [18 KU-260],IC50,"[1]; Table 8, unsaturated azasugar analogues, 72 hours, read-out: IC50 SKBr3",1.61 ± 0.1 µM
same,IC50,"[2]; Table 8, unsaturated azasugar analogues, 72 hours, read-out: IC50 MCF-7",1.73 µM
same,IC50,[5]; [19],4.23 µM
same,IC50,[6]; [19],4.36 µM
same,IC50,[7]; [19],1.42 µM
COc1cccc(-c2cc(C(=O)Nc3cc4ccc(OCCCN(C)C)c(OC)c4oc3=O)ccc2OC)c1 [KU-319],IC50,[1]; [20],0.91 ± 0.17 µM
same,IC50,[2]; [21],1.53 ± 0.18 µM
same,IC50,[5]; [22],8.03 µM
same,IC50,[6]; [23],4.08 µM
same,IC50,[7]; [24],3.43 µM
"CO[C@@H]1[C@@H](O)[C@@H](O)[C@H](Oc2ccc3cc(NC(=O)OCc4ccccc4)c(=O)oc3c2C)OC1(C)C [24, KU-249]",IC50,"[1]; Table 9, azasugar analogues on 8-methyl coumarin, 72 hours, read-out: IC50 SKBr3",2.91 ± 1.1 µM
same,IC50,"[2]; Table 9, azasugar analogues on 8-methyl coumarin, 72 hours, read-out: IC50 MCF-7",2.07 ± 1.1 µM
same,IC50,[5]; [25],6.73 µM
same,IC50,[6]; [25],7.75 µM
same,IC50,[7]; [25],4.07 µM
COc1cccc(-c2cc(C(=O)Nc3cc4cc(OC)c(OC5CCN(C)CC5)c(C)c4oc3=O)ccc2OC)c1 [KU-287],IC50,[1]; [14],1.19 ± 0.21 µM
same,IC50,[2]; [15],1.79 ± 0.11 µM
same,IC50,[5]; [16],4.07 µM
same,IC50,[6]; [17],2.84 µM
same,IC50,[7]; [18],1.99 µM
"CO[C@@H]1[C@@H](O)[C@@H](O)[C@H](Oc2ccc3cc(NC(=O)c4cc5ccccc5[nH]4)c(=O)oc3c2Cc2ccccc2)OC1(C)C [26m, N-(8-benzyl-7-((2R,3R,4S,5R)-3,4-dihydroxy-5-methoxy-6,6-dimethyltetrahydro-2H-pyran-2-yloxy)-2-oxo-2H-chromen-3-yl)-1H-indole-2-carboxamide]",IC50,[1]; [10],38 ± 3 µM
same,IC50,[2]; [11],13.2 ± 0.6 µM
same,fold less active than the 8-methyl derivative,[2]; MCF-7 cells,23 fold
same,IC50,[3]; [12],67.6 ± 6.3 µM
same,IC50,[4]; [13],73.3 ± 3.7 µM
same,fold less active than the 8-methyl analogue,cancer cell lines; PC-3 and LnCaP cells,about 4 fold
"CO[C@@H]1[C@@H](O)[C@@H](O)[C@H](Oc2ccc3cc(NC(=O)c4cccc(N)c4)c(=O)oc3c2C)OC1(C)C [compound 19, 3-Amino-N-(7-((2R,3R,4S,5R)-3,4-dihydroxy-5-methoxy-6,6-dimethyltetrahydro-2H-pyran-2-yloxy)-8-methyl-2-oxo-2H-chromen-3-yl)benzamide]",IC50,"[1]; Homo sapiens, SK-BR-3, Table 2, n = 3, read-out: IC50 SkBr3",61.4 ± 4.7 µM
same,IC50,"[1]; Table 13, various sugars on 8-methyl coumarin, 72 hours, read-out: IC50 SKBr3",12.5 ± 0.7 µM
same,IC50,"[2]; Homo sapiens, MCF7, Table 2, n = 3, read-out: IC50 MCF-7",30.1 ± 3.4 µM
same,IC50,"[2]; Table 13, various sugars on 8-methyl coumarin, 72 hours, read-out: IC50 MCF7",37.2 ± 2.1 µM
same,IC50,[8],21.2 ± 2.2 µM
same,IC50,[9],12.5 ± 0.9 µM
same,IC50,"[3]; Table 2, n = 3, read-out: IC50 LNCaP",24.8 ± 9.7 µM
same,IC50,"[4]; Table 2, n = 3",14.7 ± 2.6 µM
same,IC50,[5]; [26],3.65 µM
same,IC50,[6]; [26],30.6 µM
same,IC50,[7]; [26],> 100 µM
COc1cccc(-c2cc(C(=O)Nc3cc4cc(OC)c(OCCN(C)C)c(C)c4oc3=O)ccc2OC)c1 [KU-294],IC50,[1]; [20],1.42 ± 0.26 µM
same,IC50,[2]; [21],1.29 ± 0.21 µM
same,IC50,[5]; [22],4.71 µM
same,IC50,[6]; [23],4.87 µM
same,IC50,[7]; [24],2.21 µM
"COc1cccc(-c2cc(C(=O)Nc3cc4c(OC)cc(O[C@@H]5OC(C)(C)[C@H](OC)[C@@H](O)[C@H]5O)c(C)c4oc3=O)ccc2OC)c1 [26d, N-(7-((2R,3R,4S,5R)-3,4-dihydroxy-5-methoxy-6,6-dimethyltetrahydro-2H-pyran-2-yloxy)-5-methoxy-8-methyl-2-oxo-2H-chromen-3-yl)-3′,6-dimethoxybiphenyl-3-carboxamide]",IC50,[1]; [10],55.7 ± 6.9 µM
same,IC50,[2]; [11],82.8 µM
same,IC50,[3]; [12],2 ± 0.8 µM
same,IC50,[4]; [13],11.3 ± 2 µM
same,fold reduced activity versus the compound with a hydrogen at the 5-position,cancer cell lines,4 fold
